For assay [1], the target named is T1, Batx-I (Bothrops atrox, UniProt P0DJE1). Type of assay: biochemical.
For assay [2], the target named is T1, Batx-I. The experiment in a line: biochemical. Type of assay: biochemical.
The target of assay [3] is T1, Batx-I. The note with it: cited from earlier work.
In assay [4] the test system is BaP1. As to conditions: EDTA chelates the catalytic Zn2+ ion; cited from earlier work.

The structures appear in SMILES notation. Entries after “also recorded” stand apart in the source; their conditions may differ.

T1 sequence (P0DJE1 whole entry, looked up): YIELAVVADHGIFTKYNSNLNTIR

The term IC50 denotes the concentration that inhibits the measured activity by half. In the case of `C[C@H]1[C@H](C)CC[C@]2(C(=O)O)CC[C@]3(C)C(=CC[C@@H]4[C@@]5(C)CC[C@H](O)C(C)(C)[C@@H]5CC[C@]43C)[C@H]12` [Ursolic acid], in assay [1], the Type of inhibition entry is “competitive inhibitors” and the “ΔG^∘ Experimental” value was -3.5 ± 0.1 kcal/mol. Besides, in assay [2], the IC50 was found to be 220 ± 40 µM.
Take `C[C@H]1[C@H](C)CC[C@]2(C(=O)O)CC[C@]3(C)C(=CC[C@@H]4[C@@]5(C)C[C@@H](O)[C@H](O)[C@@](C)(CO)[C@@H]5[C@H](O)C[C@]43C)[C@H]12` [Madecassic acid]: the IC50 in assay [2] was determined as 540 ± 80 µM.
Take `O=C(O)CN(CCN(CC(=O)O)CC(=O)O)CC(=O)O` [EDTA, Ethylenediamine-tetraacetic acid]: the “Effect on proteolytic activity of Batx-I” value in assay [3] is “eliminated”. In addition, the “Effect on proteolytic activity of BaP1” value in assay [4] is reported as “eliminated”.
`CC1(C)CC[C@]2(C(=O)O)CC[C@]3(C)C(=CC[C@@H]4[C@@]5(C)CC[C@H](O)C(C)(C)[C@@H]5CC[C@]43C)[C@@H]2C1` [Oleanolic acid]: in assay [1], the Type of inhibition entry is reported as “competitive inhibitors” and the “ΔG^∘ Experimental” value was -3.7 ± 0.1 kcal/mol. Moreover, the IC50 in assay [2] turned out to be 360 ± 70 µM.
With `CC1CCC2(C)CCC3(C)C(=CCC4C5(C)CCC(O)C(C)(C(=O)O)C5CCC43C)C2C1C` (stereo not drawn) [β -Boswellic acid], in assay [2], the “Inhibition of metalloproteinase proteolytic activity (in words)” value was “negligible activity; also recorded: does not inhibit”. Besides, in assay [2] (read-out: Batx-I proteolytic activity still observed), the activity at 2000 µM came out at 70%.
As to `C=C(C)[C@@H]1CC[C@]2(C(=O)O)CC[C@]3(C)[C@H](CC[C@@H]4[C@@]5(C)CC[C@H](O)C(C)(C)[C@@H]5CC[C@]43C)[C@@H]12` [Betulinic acid], in assay [1], the Type of inhibition result was “competitive inhibitors” and the “ΔG^∘ Experimental” value was -4.5 ± 0.1 kcal/mol. In assay [2], this molecule showed an IC50 of 115 ± 16 µM.
Consider `C=C(C)[C@@H]1CC[C@]2(CO)CC[C@]3(C)[C@H](CC[C@@H]4[C@@]5(C)CC[C@H](O)C(C)(C)[C@@H]5CC[C@]43C)[C@@H]12` [Betulin], for which, in assay [2], the “Inhibition of metalloproteinase proteolytic activity (in words)” value is reported as “negligible activity” and it took 1470 ± 130 µM to reach half-maximal inhibition (IC50).
